Laboratory results as given in US9914730B2, “Azaquinazoline inhibitors of Atypical protein Kinase C” (Ignyta, Inc., priority 2012, dated 2018).

target: T1, full-length human PKCι (Homo sapiens, UniProt P41743); assay: PKCι IC50 IMAP assay, full-length PKCι at 150 μM ATP; format: biochemical; conditions: read-out: IC50 in IMAP assay against full length PKCi at 150 μM ATP
T1 construct: Recombinant, full-length human PKCι expressed in Sf21 insect cells is also commercially available; purchased; host or cells: Sf21 insect cells
T1 sequence (P41743 1-596): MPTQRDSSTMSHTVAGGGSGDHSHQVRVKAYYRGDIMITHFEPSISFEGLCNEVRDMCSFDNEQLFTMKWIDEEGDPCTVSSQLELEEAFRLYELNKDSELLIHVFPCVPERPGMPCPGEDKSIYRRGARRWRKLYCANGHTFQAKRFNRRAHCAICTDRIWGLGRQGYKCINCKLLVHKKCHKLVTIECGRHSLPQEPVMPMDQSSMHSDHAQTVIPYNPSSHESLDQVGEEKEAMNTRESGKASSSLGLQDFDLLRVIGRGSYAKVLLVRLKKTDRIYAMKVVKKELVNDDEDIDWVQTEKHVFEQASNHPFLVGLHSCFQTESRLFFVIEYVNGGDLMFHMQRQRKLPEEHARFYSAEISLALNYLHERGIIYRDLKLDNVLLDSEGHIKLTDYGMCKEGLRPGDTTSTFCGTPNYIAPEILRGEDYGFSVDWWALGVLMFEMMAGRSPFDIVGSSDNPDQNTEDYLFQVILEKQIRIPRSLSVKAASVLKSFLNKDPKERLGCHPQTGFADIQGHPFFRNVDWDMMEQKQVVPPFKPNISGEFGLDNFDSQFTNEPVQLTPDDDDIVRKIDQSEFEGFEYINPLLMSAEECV
In short: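 Recombinant full-length human PKCι (Sf21-expressed, typically 15 pM) phosphorylated 100 nM 5FAM-labelled PKCε pseudosubstrate-derived peptide with 150 μM ATP (5× KM^APP) in 18 mM tris-HCl pH7.5, 9 mM MgCl2, EGTA, DTT, 4% DMSO. After 60 min at room temperature, IMAP binding reagent was added for 2 h and fluorescence polarisation read.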

Question: How did the IC50 turn out when `Fc1cnc(Nc2cc(-c3nc(N4CCNCC4)c4c(C(F)(F)F)cncc4n3)ccn2)c(F)c1` [Example 2194, (3,5-Difluoro-pyridin-2-yl)-[4-(4-piperazin-1-yl-5-trifluoromethyl-pyrido[3,4-d]pyrimidin-2-yl)-pyridin-2-yl]-amine] was run?
Answer: < 0.1 µM

Question: `O=C(C1CCN(c2nc(-c3ccnc(Nc4c(F)cccc4F)c3)nc3cncc(C4CC4)c23)CC1)N1CCNCC1` [Example 741, (1-{5-Cyclopropyl-2-[2-(2,6-difluoro-phenylamino)-pyridin-4-yl]-pyrido[3,4-d]pyrimidin-4-yl}-piperidin-4-yl)-piperazin-1-yl-methanone] was tested. Which IC50 did it give?
Answer: 0.1 to 1 µM

Question: How did the IC50 turn out when `Fc1cc(F)c(Nc2cc(-c3nc(N4CCNCC4)c4c(C(F)(F)F)cncc4n3)ccn2)nc1F` [Example 2195, [4-(4-Piperazin-1-yl-5-trifluoromethyl-pyrido[3,4-d]pyrimidin-2-yl)-pyridin-2-yl]-(3,5,6-trifluoro-pyridin-2-yl)-amine] was run?
Answer: < 0.1 µM

Question: Which IC50 does the source give for `COc1cncc2nc(-c3ccnc(Nc4ccccc4)c3)nc(N3CCN[C@@H](CF)C3)c12` [Example 233, {4-[4-((R)-3-Fluoromethyl-piperazin-1-yl)-5-methoxy-pyrido[3,4-d]pyrimidin-2-yl]-pyridin-2-yl}-phenyl-amine] here?
Answer: 0.1 to 1 µM

Question: Which IC50 does the source give for `COc1cncc2nc(-c3ccnc(Nc4ccccc4)c3)nc(NCCC(N)=O)c12` [Example 458, 3-[5-Methoxy-2-(2-phenylamino-pyridin-4-yl)-pyrido[3,4-d]pyrimidin-4-ylamino]-propionamide] here?
Answer: 1 to 10 µM

Question: Which IC50 does the source give for `c1ccc2c(Nc3cc(-c4nc(N5CCNCC5)c5c(C6CC6)cncc5n4)ccn3)nccc2c1` [Example 2089, [4-(5-Cyclopropyl-4-piperazin-1-yl-pyrido[3,4-d]pyrimidin-2-yl)-pyridin-2-yl]-iso[D4],[D3]uinolin-1-yl-amine] here?
Answer: < 0.1 µM

Question: How did the IC50 turn out when `COc1cncc2nc(-c3ccncc3)nc(N3CCN[C@@H](C)C3)c12` [Example 44, (3S)-1-[5-methoxy-2-(pyridin-4-yl)-pyrido[3,4-d]-pyrimidin-4-yl]-3-methylpiperazine] was run?
Answer: 0.1 to 1 µM

Question: For `COc1cncc2nc(-c3ccncc3)nc(N3CCNC(C(=O)Nc4ccccc4)C3)c12` (stereo not drawn) [Example 156, 4-(5-Methoxy-2-pyridin-4-yl-pyrido[3,4-d]pyrimidin-4-yl)-piperazine-2-carboxylic acid phenylamide], which IC50 is on record?
Answer: 1 to 10 µM

Question: How did the IC50 turn out when `FC1(F)CC(Nc2cc(-c3nc(N4CCNCC4)c4c(C5CC5)cncc4n3)ccn2)C1` [Example 585, [4-(5-Cyclopropyl-4-piperazin-1-yl-pyrido[3,4-d]pyrimidin-2-yl)-pyridin-2-yl]-(3,3-difluorocyclo-butyl)-amine] was run?
Answer: < 0.1 µM

Question: `c1cc2c(N[C@@H]3CCNC3)nc(-c3ccnc(Nc4ccc(N5CCOCC5)nc4)c3)nc2cn1` [Example 319, {2-[2-(6-Morpholin-4-yl-pyridin-3-ylamino)-pyridin-4-yl]-pyrido[3,4-d]pyrimidin-4-yl}-(R)-pyrrolidin-3-yl-amine] was tested. Which IC50 did it give?
Answer: < 0.1 µM

Question: How did the IC50 turn out when `N#Cc1ccc(F)c(Nc2cc(-c3nc(N4CCNCC4)c4c(C5CC5)cncc4n3)ccn2)c1` [Example 528, 3-[4-(5-Cyclopropyl-4-piperazin-1-yl-pyrido[3,4-d]pyrimidin-2-yl)-pyridin-2-ylamino]-4-fluoro-benzonitrile] was run?
Answer: 0.1 to 1 µM

Question: With `CC(C)(C)c1cc2c(-c3nc(N4CCNCC4)c4c(C5CC5)cnc(F)c4n3)ccnc2[nH]1` [Example 2119, 2-(2-tert-Butyl-1H-pyrrolo[2,3-b]pyridin-4-yl)-5-cyclopropyl-8-fluoro-4-piperazin-1-yl-pyrido[3,4-d]pyrimidine] as the compound, how does the IC50 read?
Answer: < 0.1 µM

Question: Which IC50 does the source give for `FC(F)(CNc1cc(-c2nc(N3CCNCC3)c3c(C4CC4)cncc3n2)ccn1)c1ccccc1` [Example 2166, [4-(5-Cyclopropyl-4-piperazin-1-yl-pyrido[3,4-d]pyrimidin-2-yl)-pyridin-2-yl]-(2,2-difluoro-2-phenyl-ethyl)-amine] here?
Answer: < 0.1 µM

Question: With `FC(F)(F)c1cc2c(-c3nc(NC4CCNC4)c4c(C5CC5)cncc4n3)ccnc2[nH]1` (stereo in doubt) [Example 2069, [5-Cyclopropyl-2-(2-trifluoromethyl-1H-pyrrolo[2,3-b]pyridin-4-yl)-pyrido[3,4-d]pyrimidin-4-yl]-(R)-pyrrolidin-3-yl-amine] as the compound, how does the IC50 read?
Answer: < 0.1 µM

Question: How did the IC50 turn out when `COc1cncc2nc(-c3ccnc(Nc4cc(C)ccn4)c3)nc(N3CCNCC3)c12` [Example 363, [4-(5-Methoxy-4-piperazin-1-yl-pyrido[3,4-d]pyrimidin-2-yl)-pyridin-2-yl]-(4-methyl-pyridin-2-yl)-amine] was run?
Answer: < 0.1 µM

Question: Which IC50 does the source give for `c1cc(-c2nc(N3CCSCC3)c3ccncc3n2)ccn1` [Example 24, 4-[2-(pyridin-4-yl)pyrido[3,4-d]-pyrimidin-4-yl]-thiomorpholine] here?
Answer: 10 to 40 µM

Question: Which IC50 does the source give for “(2,6-Difluoro-phenyl)-{2-[2-(2,6-difluoro-phenylamino)-pyridin-4-yl]-4-piperazin-1-yl-pyrido[3,4-d]pyrimidin-5-yl}-amine [Example 262]” here?
Answer: 0.1 to 1 µM

Question: For `CC1(C)CN(c2nc(-c3ccnc(Nc4ccn(CC(F)(F)F)n4)c3)nc3cncc(C4CC4)c23)CCN1` [Example 2017, {4-[5-Cyclopropyl-4-(3,3-dimethyl-piperazin-1-yl)-pyrido[3,4-d]pyrimidin-2-yl]-pyridin-2-yl}-[1-(2,2,2-trifluoro-ethyl)-1H-pyrazol-3-yl]-amine], which IC50 is on record?
Answer: < 0.1 µM

Question: For `COc1cncc2nc(-c3ccnc(Nc4cccnc4)c3)nc(N[C@@H]3CCNC3)c12` [Example 377, {5-Methoxy-2-[2-(pyridin-3-ylamino)-pyridin-4-yl]-pyrido[3,4-d]pyrimidin-4-yl}-(R)-pyrrolidin-3-yl-amine], which IC50 is on record?
Answer: 0.1 to 1 µM

Question: For `Fc1nc(N2CCOCC2)ccc1Nc1cc(-c2nc(N3CCNCC3)c3c(C4CC4)cncc3n2)ccn1` [Example 731, [4-(5-Cyclopropyl-4-piperazin-1-yl-pyrido[3,4-d]pyrimidin-2-yl)-pyridin-2-yl]-(2-fluoro-6-morpholin-4-yl-pyridin-3-yl)-amine], which IC50 is on record?
Answer: < 0.1 µM

Question: With `COc1cncc2nc(-c3ccnc(Nc4cccc(CC(N)=O)c4)c3)nc(N[C@@H]3CCNC3)c12` [Example 324, 2-(3-{4-[5-Methoxy-4-((R)-pyrrolidin-3-ylamino)-pyrido[3,4-d]pyrimidin-2-yl]-pyridin-2-ylamino}-phenyl)-acetamide] as the compound, how does the IC50 read?
Answer: < 0.1 µM

Question: Which IC50 does the source give for `c1cc(-c2nc(N3CCNCC3)c3c(C4CC4)cncc3n2)cc(Nc2ccc3c(c2)CCC3)n1` [Example 2124, [4-(5-Cyclopropyl-4-piperazin-1-yl-pyrido[3,4-d]pyrimidin-2-yl)-pyridin-2-yl]-indan-5-yl-amine] here?
Answer: < 0.1 µM

Question: How did the IC50 turn out when `c1cnc(Nc2cc(-c3nc(N4CCNCC4)c4c(C5CC5)cncc4n3)ccn2)cn1` [Example 507] was run?
Answer: < 0.1 µM

Question: With `Fc1ccc(Nc2cc(-c3nc(N4CCNCC4)c4c(C5CC5)cncc4n3)ccn2)cn1` [Example 672, [4-(5-Cyclopropyl-4-piperazin-1-yl-pyrido[3,4-d]pyrimidin-2-yl)-pyridin-2-yl]-(6-fluoro-pyridin-3-yl)-amine] as the compound, how does the IC50 read?
Answer: < 0.1 µM

Question: How did the IC50 turn out when `FC(F)(F)C1(c2cc3c(-c4nc(N5CCNCC5)c5c(C6CCC6)cncc5n4)ccnc3[nH]2)CCC1` [Example 2183, 5-Cyclobutyl-4-piperazin-1-yl-2-[2-(1-trifluoromethyl-cyclobutyl)-1H-pyrrolo[2,3-b]pyridin-4-yl]-pyrido[3,4-d]pyrimidine] was run?
Answer: < 0.1 µM

Question: `COc1cncc2nc(-c3ccnc(NC(=O)Cc4cccc(C(F)(F)F)c4)c3)nc(N3CCNCC3)c12` [Example 373, N-[4-(5-Methoxy-4-piperazin-1-yl-pyrido[3,4-d]pyrimidin-2-yl)-pyridin-2-yl]-2-(3-trifluoromethyl-phenyl)-acetamide] was tested. Which IC50 did it give?
Answer: < 0.1 µM

Question: How did the IC50 turn out when `COc1cc(Nc2cc(-c3nc(N4CCNCC4)c4c(C5CC5)cncc4n3)ccn2)ccc1F` [Example 627, [4-(5-Cyclopropyl-4-piperazin-1-yl-pyrido[3,4-d]pyrimidin-2-yl)-pyridin-2-yl]-(4-fluoro-3-methoxy-phenyl)-amine] was run?
Answer: < 0.1 µM

Question: `COc1cc(N2CCOCC2)ccc1Nc1cc(-c2nc(N3CCNCC3)c3c(OC)cncc3n2)ccn1` [Example 359, (2-Methoxy-4-morpholin-4-yl-phenyl)-[4-(5-methoxy-4-piperazin-1-yl-pyrido[3,4-d]pyrimidin-2-yl)-pyridin-2-yl]-amine] was tested. Which IC50 did it give?
Answer: 0.1 to 1 µM

Question: For `COc1cncc2nc(-c3ccnc(NC(=O)Cc4cccc(C#N)c4)c3)nc(N3CCOCC3)c12` [Example 389, 2-(3-Cyano-phenyl)-N-[4-(5-methoxy-4-morpholin-4-yl-pyrido[3,4-d]pyrimidin-2-yl)-pyridin-2-yl]-acetamide], which IC50 is on record?
Answer: 0.1 to 1 µM

Question: For `c1ccc2nc(Nc3cc(-c4nc(N5CCNCC5)c5c(C6CC6)cncc5n4)ccn3)ccc2c1` [Example 2078, [4-(5-Cyclopropyl-4-piperazin-1-yl-pyrido[3,4-d]pyrimidin-2-yl)-pyridin-2-yl]-[D4],[D3]uinolin-2-yl-amine], which IC50 is on record?
Answer: < 0.1 µM
